Results published in patent US11697818B2, “Pyruvate-responsive biosensor, and construction method and use thereof” (priority 2020, dated 2023).

Test system: strain 168-PR containing the plasmid PHT01-P43D-GFP
Assay: Specificity (orthogonality) of pyruvate biosensor towards inducing agents
Type: cell-based, Bacillus subtilis
Conditions: 5 g of inducing agent added to the medium; strain 168-PR with PHT01-P43D-GFP
Protocol: 2. Detection method for Relative fluorescence intensity: The strain to be determined for the fluorescence intensity is streaked into LB solid medium containing chloramphenicol (5 μg/mL) in a plate. Single colonies are picked up and inoculated into LB liquid medium and incubated at 37° C. and 220 rpm for 12 h. Then the cell suspension is inoculated into 200 μL of LB liquid medium in a 96-well fluorescent microplate in an amount of 2% (V/V), and incubated at 37° C. and 900 rpm. The microplate is removed at different times, and the fluorescence intensity (excitation light: 488 nm, absorption light: 520 nm) and cell density (600 nm) are determined on the Cytation microplate reader (BioTek).

CC(C)S[C@@H]1O[C@H](CO)[C@H](O)[C@H](O)[C@H]1O [IPTG]
induction of the activity of the pyruvate biosensor: only pyruvate can significantly induce

O=C(O)[C@@H](O)[C@@H](O)[C@H](O)[C@@H](O)C(=O)O [glucaric acid]
induction of the activity of the pyruvate biosensor: only pyruvate can significantly induce

CC(=O)O [acetic acid]
induction of the activity of the pyruvate biosensor: only pyruvate can significantly induce

O=C[C@@H](O)[C@H](O)[C@H](O)CO [arabinose]
induction of the activity of the pyruvate biosensor: only pyruvate can significantly induce

O=C(O)CCC(=O)C(=O)O [α-ketoglutaric acid]
induction of the activity of the pyruvate biosensor: only pyruvate can significantly induce

OC[C@H]1O[C@@H](O[C@H]2[C@H](O)[C@@H](O)C(O)O[C@@H]2CO)[C@H](O)[C@@H](O)[C@H]1O (stereo partly shown) [lactose]
induction of the activity of the pyruvate biosensor: only pyruvate can significantly induce

CC(O)C(=O)O (stereo not shown) [lactic acid]
induction of the activity of the pyruvate biosensor: only pyruvate can significantly induce

CC(=O)C(C)O (stereo not shown) [acetoin]
induction of the activity of the pyruvate biosensor: only pyruvate can significantly induce

C[C@H](N)C(=O)O [alanine]
induction of the activity of the pyruvate biosensor: only pyruvate can significantly induce

O=C[C@H](O)[C@@H](O)[C@H](O)CO [xylose]
induction of the activity of the pyruvate biosensor: only pyruvate can significantly induce
